Laboratory results reported in patent US6458962B1, “Sultams: catalyst systems for asymmetric reduction of a C=N intermediate biological compositions and methods for making the sultams” (The University of Tennesseee Research Corporation, priority 1999, dated 2002).

How the values were obtained:
HIV-1 = test: Anti-HIV-1 activity, National Cancer Institute protocol (Weislow et al.); type: cell-based; conditions: for EC50: Human immunodeficiency virus 1, read-out: ECSO; for TLSO: ratio IC50/EC50, NCI protocol
Method: (§1) The sultams of the invention were tested in accordance with the National Cancer Institute Protocol, Weislow, O. W., et al. (1989) J. Natl. Cancer Inst. 81:577-586, which is incorporated herein by reference. The protocol is also described in U.S. Pat. No. 5,843,990.
The anti-HIV activity of compounds of the invention illustrated by the formula V shown above, is reported below.
Table III illustrates anti-HIV-1 activities of compounds of the invention, the substituents (shown in formula V).

[1] = IC50 in the National Cancer Institute anti-HIV protocol (Weislow et al.), used with EC50 for the TI50; type: cell-based; conditions: NCI protocol; read-out: ICSO
Method: as §1

| Compound | EC50 (HIV-1) [nM] | TLSO (HIV-1) | melting point [°C] | IC50 [1] [µM] |
| --- | --- | --- | --- | --- |
| Cc1cccc(C2c3ccccc3S(=O)(=O)N2C)c1 (single isomer, unassigned; (+)) [Compound 7, (+)-2-Methyl-3-(3-methylphenyl)-2,3-dihydrobenzo[d] isothiazole 1,1-Dioxide] | 37 | >54 | 154 | > 2 |
| CN1C(c2cccc(F)c2)c2ccccc2S1(=O)=O (single isomer, unassigned; (+)) [Compound 13, (+)-3-(3-Fluorophenyl)-2-methyl-2,3-dihydrobenzo[d]isothiazole 1,1-Dioxide] | 179 | 538 | 147 | 147 |
| Cc1ccccc1C1c2ccccc2S(=O)(=O)N1C (single isomer, unassigned; (+)) [Compound 18, (+)-2-Methyl-3-(2-methylphenyl)-2,3-dihydrobenzo[d]isothiazole 1,1-Dioxide] | 4680 | 26.3 | 152 | 123 |
| CN1[C@@H](c2ccccc2)c2ccccc2S1(=O)=O [Compound 5, (+)-(S)-2-Methyl-3-phenyl-2,3-dihydrobenzo[d]isothiazole 1,1-Dioxide] | 471 | >674 | 156 to 157 | > 316 |
| CN1[C@@H](c2cccc(Br)c2)c2ccccc2S1(=O)=O [Compound 9, (+)-(S)-3-(3-Bromophenyl)-2-methyl-2,3-dihydrobenzo[d]isothiazole 1,1-Dioxide] | 74 | 136.5 | 157 | 101 |
| CN1[C@@H](c2cccc(Cl)c2)c2ccccc2S1(=O)=O [Compound 11, (+)-(S)-3-(3-Chlorophenyl)-2-methyl-2,3-dihydrobenzo[d]isothiazole 1,1-Dioxide] | 86 | >31 | 164 | > 2 |
| CN1[C@@H](c2cccc(I)c2)c2ccccc2S1(=O)=O [Compound 15, (+)-(S)-2-Methyl-3-(3-iodophenyl)-2,3-dihydrobenzo[d]isothiazole 1,1-Dioxide] | 76 | 817 | 156 | 62.4 |
